Results taken from PubChem BioAssay (NCI).
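Protocol summary: plate cells (96-well), add compound at 5 concentrations, incubate 48 h, interpolate endpoints linearly. TGI marks complete inhibition of growth.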

Experiments:
Assay in all cases: growth of human tumour cells (NCI), 48 h
786-0 renal = system: 786-0 renal
SW-620 colon = system: SW-620 colon
BT-549 breast = system: BT-549 breast
RPMI-8226 leukemia = system: RPMI-8226 leukemia
SK-MEL-28 melanoma = system: SK-MEL-28 melanoma
SNB-19 CNS = system: SNB-19 CNS
K-562 leukemia = system: K-562 leukemia
HS 578T breast = system: HS 578T breast
HT29 colon = system: HT29 colon
UACC-257 melanoma = system: UACC-257 melanoma
NCI-H226 lung = system: NCI-H226 lung
HCT-116 colon = system: HCT-116 colon
U251 CNS = system: U251 CNS
HOP-92 NSCLC = system: HOP-92 NSCLC
IGROV1 ovarian = system: IGROV1 ovarian
PC-3 prostate = system: PC-3 prostate
NCI-H522 lung = system: NCI-H522 lung
M14 melanoma = system: M14 melanoma
HOP-62 NSCLC = system: HOP-62 NSCLC

SMILES	TGI (786-0 renal)	TGI (SW-620 colon)	TGI (BT-549 breast)	TGI (RPMI-8226 leukemia)	TGI (SK-MEL-28 melanoma)	TGI (SNB-19 CNS)	TGI (K-562 leukemia)	TGI (HS 578T breast)	TGI (HT29 colon)	TGI (UACC-257 melanoma)	TGI (NCI-H226 lung)	TGI (HCT-116 colon)	TGI (U251 CNS)	TGI (HOP-92 NSCLC)	TGI (IGROV1 ovarian)	TGI (PC-3 prostate)	TGI (NCI-H522 lung)	TGI (M14 melanoma)	TGI (HOP-62 NSCLC)
Nc1c2ccccc2nc2ccc(C(=O)Nc3ccc(S(N)(=O)=O)cc3)cc12	> 100 µM	> 100 µM	> 100 µM	> 100 µM	> 100 µM	> 100 µM	> 100 µM	> 100 µM	> 100 µM	> 100 µM	> 100 µM	> 100 µM	> 100 µM	> 100 µM	> 100 µM	> 100 µM	> 100 µM	> 100 µM	> 100 µM
CCOC(=O)C1C(=O)C=C(c2cc(C)ccc2O)CC1c1cccc(Br)c1 (centres undefined)	39.8 µM	> 100 µM	72.7 µM	33.8 µM		32.5 µM	46.8 µM	34.4 µM	37.5 µM	38 µM	37.3 µM	40.7 µM	32 µM	29.8 µM	39.5 µM	40.4 µM	35.1 µM	37 µM	> 100 µM
N#Cc1c(C#N)c(-c2ccco2)n(/N=C/c2ccco2)c1N	> 100 µM	> 100 µM	> 100 µM	> 100 µM		67.5 µM	> 100 µM	71.2 µM	> 100 µM	> 100 µM	66.2 µM	> 100 µM	60.3 µM	61.2 µM	> 100 µM	> 100 µM	> 100 µM	> 100 µM	> 100 µM
O=C1c2c(ccc3c2CCCC3)CC12Cc1ccccc1C2	> 100 µM	> 100 µM	> 100 µM	45.5 µM	> 80.4 µM	> 100 µM	> 48.2 µM	> 100 µM	> 57.1 µM	54 µM	71.7 µM	26.1 µM	> 100 µM	51.7 µM	> 100 µM	> 100 µM	56.7 µM	> 100 µM	> 100 µM
Cc1ccc(-n2cc(-c3ccc(Cl)cc3)c3c(NNC(=S)NCc4ccccc4)ncnc32)cc1	51.1 µM	> 100 µM	83 µM	> 100 µM	> 100 µM	> 100 µM	> 100 µM	> 100 µM	50.7 µM	48 µM	> 100 µM	16.8 µM	48.6 µM	66 µM	54.4 µM	23.1 µM	13.2 µM	37.6 µM	85.4 µM
CC(C)(C)OC(=O)N1CC(COS(C)(=O)=O)c2ccc(O)cc21 (centres undefined)	11 µM	9.57 µM	3.58 µM	3.96 µM	3.8 µM	8.95 µM	9.54 µM	5.75 µM	10.6 µM	5.54 µM	4.67 µM	10.3 µM	9.69 µM	5.56 µM	12.1 µM	3.83 µM	2.39 µM	3.14 µM	8.05 µM
O=C1CSC(c2ccc(Cl)cc2)N1c1ccc(-n2c(-c3ccccc3)nc3ccccc3c2=O)cc1 (centres undefined)	> 100 µM	> 100 µM	> 100 µM	> 100 µM	> 100 µM	> 100 µM	> 100 µM	> 100 µM	> 100 µM	> 100 µM	> 100 µM	> 100 µM	> 100 µM	> 100 µM	> 100 µM	> 100 µM	> 100 µM	> 100 µM	> 100 µM
O=C1NC(N2CCCC(CO)C2)=N/C1=C\c1ccc(O)cc1 (centres undefined)	> 100 µM	> 100 µM	> 100 µM	> 100 µM	> 100 µM	> 100 µM	> 100 µM	> 100 µM	> 100 µM	> 100 µM	> 100 µM	> 100 µM	> 100 µM	> 100 µM	> 100 µM	> 100 µM	> 100 µM	> 100 µM	> 100 µM
Clc1ccc(CCn2ccc3ccccc32)c(Cl)c1	> 100 µM	> 100 µM	> 100 µM	> 100 µM		> 100 µM	> 100 µM	> 100 µM	> 100 µM	> 100 µM	> 100 µM	> 100 µM	> 100 µM	> 100 µM	> 100 µM	> 100 µM	> 100 µM	> 100 µM	> 100 µM
O=C(O)CCCCCNC(=O)CCC(CN(CC(=O)OCc1ccccc1)CC(=O)OCc1ccccc1)N(CC(=O)OCc1ccccc1)CC(=O)OCc1ccccc1 (centres undefined)	34.1 µM	45.3 µM	33.1 µM	31.9 µM	33.7 µM	32.9 µM	30.6 µM	41.9 µM	33.7 µM	33.1 µM	54.2 µM	31.2 µM	46.6 µM	31.1 µM	33.8 µM	32.4 µM	42.1 µM	32.3 µM	41 µM
CC(C)(C)OC(=O)N(CCCN)CCCCN(CCCN)C(=O)OC(C)(C)C	> 100 µM	> 100 µM	> 100 µM	> 100 µM	> 100 µM	> 100 µM	> 100 µM	> 100 µM	> 100 µM	> 100 µM	> 100 µM	> 100 µM	> 100 µM	> 100 µM	> 100 µM	> 100 µM	> 100 µM	> 100 µM	> 100 µM
COC(=O)C(I(OS(=O)(=O)c1ccc(C)cc1)c1ccccc1)=P(c1ccccc1)(c1ccccc1)c1ccccc1	28.9 µM		45.5 µM	24.2 µM	28.7 µM	> 100 µM	> 100 µM	85.1 µM	42.1 µM	37.1 µM	23.2 µM	30.2 µM	40.7 µM	35.4 µM	37.7 µM	62 µM	27.7 µM	32.4 µM	36.8 µM
COc1cc(NS(C)(=O)=O)ccc1N1Cc2cnc3ccc4[nH]ccc1c4c23	> 100 µM	> 100 µM	> 100 µM	46.8 µM	> 100 µM	> 100 µM	> 100 µM	> 100 µM	> 100 µM	> 100 µM	93.5 µM	> 100 µM	> 100 µM	> 100 µM	> 100 µM	> 100 µM	> 100 µM	> 100 µM	> 100 µM
COc1cccc2c(NNc3ccc(Cl)cc3)c3ccc([N+](=O)[O-])cc3nc12	21.2 µM	> 100 µM	29.8 µM	> 100 µM	> 100 µM	33.2 µM	97.2 µM	50.6 µM	34.8 µM	55.2 µM	36.8 µM	20.3 µM	31.2 µM	27.7 µM		26.1 µM	21.1 µM	41.6 µM	24.2 µM
COC(=O)[C@H]1ON2O[C@H](OC3CCCC[C@@H]3c3ccccc3)C[C@@H]3CC[C@H]1[C@@]32C (some centres undefined)	> 100 µM	> 100 µM	> 100 µM	> 100 µM	> 100 µM	> 100 µM	> 100 µM	> 100 µM	> 100 µM	> 100 µM	> 100 µM	> 100 µM	> 100 µM	> 100 µM	> 100 µM	> 100 µM	> 100 µM	> 100 µM	> 100 µM
CC(C)(C)OC(=O)NCCNC(=O)OCc1ccccc1	> 100 µM	> 100 µM	> 100 µM	> 100 µM	> 100 µM	> 100 µM	> 100 µM	> 100 µM	> 100 µM	> 100 µM	> 100 µM		> 100 µM	> 100 µM	> 100 µM	> 100 µM	> 100 µM	> 100 µM	> 100 µM
O=C(C(=O)n1ccc2ccccc21)c1c[nH]c2ccccc12	> 10 µM	> 10 µM	> 10 µM	> 10 µM	> 10 µM	> 10 µM	> 10 µM	> 10 µM	> 10 µM	> 10 µM	> 10 µM	> 10 µM	> 10 µM	> 10 µM	> 10 µM	> 10 µM	> 10 µM	> 10 µM	> 10 µM
CCN1CCc2sc3[nH]c(=S)n(C)c(=O)c3c2C1	> 100 µM	> 100 µM	> 100 µM	> 100 µM	> 100 µM	> 100 µM	> 100 µM	> 100 µM	> 100 µM	> 100 µM	> 100 µM	> 100 µM	> 100 µM	> 100 µM	> 100 µM	> 100 µM	> 100 µM	> 100 µM	> 100 µM
C=CCn1c(=O)c(-c2ccccc2)c(O)c2ccccc21	> 100 µM	> 100 µM	> 100 µM	> 100 µM	> 100 µM	> 100 µM	> 100 µM	> 100 µM	> 100 µM	> 100 µM	> 100 µM	> 100 µM	> 100 µM	> 100 µM	> 100 µM	> 100 µM	> 100 µM		> 100 µM
